We go through 19 compounds from US10550100B2, “5-[3-[piperzin-1-yl]-3-oxo-propyl]-imidazolidine-2,4-dione derivatives as ADAMTS 4 and 5 inhibitors for treating E.G. osteoarthritis” (GALAPAGOS NV, priority 2016, dated 2020).

pIC50: −log10 of the molar value. Like-named read-outs stand apart in the source and are kept apart here.

For orientation: pIC50 means −log10 of the IC50, conventionally taken in molar units.

Common to all, as to assay type: biochemical
Assay [1] addresses T1, human ADAMTS-5 (Homo sapiens (Human), UniProt Q9UNA0). Description: hADAMTS-5 TBIS-1 cleavage assay, Protocol 2. Conditions: Protocol 2, TBIS-1 substrate, 45 min at 37° C.; read-out: hADAMTS-5 potency IC50. As for the experimental part: The basis for the assay is the cleavage of the substrate TBIS-1 (5 FAM-[…] (5TAMRA)K-NH2) (SEQ ID NO: 2) by human ADAMTS-5.
(§1) The reaction is initiated by adding to the assay plate TBIS-1 (10 μL, 4.5 μM, Anaspec) in the same buffer.
Finally, the fluorescence is read on the Envision (Perkin Elmer) after an incubation of 45 min at 37° C. (Excitation 485 nm, emission 530).

The target in assay [2] is human ADAMTS6 (Homo sapiens (Human), UniProt Q9UKP5). Description: hADAMTS-6 520 MMP FRET substrate XII cleavage assay. Conditions: 37° C. for 2 h, read-out: hADAMTS-6 potency IC50. In a few lines:
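FRET cleavage of 520 MMP Substrate XII (Arg-Pro-Lys-Pro-Tyr-Ala-Nva-Trp-Met-Lys) by 0.73 nM enzyme in 25 mM Tris pH8.0, 0.05% CHAPS, 2.5 mM CaCl2. Compound dilution series from 20 μM top, 1/5 steps; substrate added from 1 μM stock, 2 h at 37° C. Fluorescence read at exc485/em530 for IC50.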

Assay [3] deals with human TACE (Homo sapiens (Human), UniProt P78536). Briefly: hTACE 5FAM-[…]-5TAMRA cleavage assay. Conditions: 75 min at room temperature, read-out: hTACE potency IC50. As to the method: Finally, the fluorescence is read on the Envision (Perkin Elmer) after an incubation of 75 min at room temperature (Excitation 485 nm, Emission 530).
Assay [4] has as its target rnADAMTS-5 (1-564-6H) (Rattus norvegicus (Rat), UniProt Q6TY19). Description: Rat ADAMTS-5 TBIS-1 substrate cleavage assay. The conditions noted are these: rnADAMTS-5, TBIS-1 substrate, 120 min at 37° C.; read-out: Rat ADAMTS-5 potency IC50. As to the method: The basis for the assay is the cleavage of the substrate TBIS-1 (5 FAM-[…] (5TAMRA)K-NH2) (SEQ ID NO: 2) by rnADAMTS-5 (1-564-6H).
as §1
Finally, the fluorescence is read on the Envision (Perkin Elmer) after an incubation of 120 min at 37° C. (Excitation 485 nm, emission 535).

Assay [5] has as its target human MMP13 (Homo sapiens (Human), UniProt P45452). Description: hMMP13 390 MMP FRET Substrate I cleavage assay, Protocol 1. Conditions: Protocol 1, 390 MMP FRET Substrate I; read-out: hMMP-13 potency IC50. The essentials: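 Human MMP13 was preactivated with 1 mM p-aminophenylmercuric acetate for 1 h at 37° C. Cleavage of 390 MMP FRET Substrate I (2.5 μM as added) ran 45 min at room temperature, with fluorescence read at 485 nm excitation and 530 nm emission.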

For assay [6], the target named is T1, human ADAMTS-5. Description: hADAMTS-5 TBIS-1 cleavage assay, Protocol 3. The conditions noted are these: Protocol 3, TBIS-1 substrate, 90 min at 37° C.; read-out: hADAMTS-5 potency IC50. As for the experimental part:
as §1
Finally, the fluorescence is read on the Envision (Perkin Elmer) after an incubation of 90 min at 37° C. (Excitation 485 nm, emission 530).

T1 sequence (Q9UNA0 262-930): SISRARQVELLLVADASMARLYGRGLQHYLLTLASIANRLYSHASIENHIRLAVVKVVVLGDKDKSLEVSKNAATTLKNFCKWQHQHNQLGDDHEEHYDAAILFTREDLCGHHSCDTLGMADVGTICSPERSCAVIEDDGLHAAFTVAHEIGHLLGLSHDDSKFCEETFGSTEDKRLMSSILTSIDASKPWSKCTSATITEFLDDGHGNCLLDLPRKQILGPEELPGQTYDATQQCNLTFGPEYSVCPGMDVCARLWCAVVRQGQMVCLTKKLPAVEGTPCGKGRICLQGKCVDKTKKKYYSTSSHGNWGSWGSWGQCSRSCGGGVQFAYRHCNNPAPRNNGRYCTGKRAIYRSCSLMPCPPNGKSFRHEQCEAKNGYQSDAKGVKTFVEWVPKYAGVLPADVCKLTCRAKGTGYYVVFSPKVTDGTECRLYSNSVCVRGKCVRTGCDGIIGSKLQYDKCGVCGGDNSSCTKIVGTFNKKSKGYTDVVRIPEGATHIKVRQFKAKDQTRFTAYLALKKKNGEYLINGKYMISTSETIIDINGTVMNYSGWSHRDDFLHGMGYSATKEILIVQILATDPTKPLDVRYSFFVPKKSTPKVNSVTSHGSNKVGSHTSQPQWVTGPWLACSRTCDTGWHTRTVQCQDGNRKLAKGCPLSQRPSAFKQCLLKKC
Sequence of human TACE (P78536 215-671): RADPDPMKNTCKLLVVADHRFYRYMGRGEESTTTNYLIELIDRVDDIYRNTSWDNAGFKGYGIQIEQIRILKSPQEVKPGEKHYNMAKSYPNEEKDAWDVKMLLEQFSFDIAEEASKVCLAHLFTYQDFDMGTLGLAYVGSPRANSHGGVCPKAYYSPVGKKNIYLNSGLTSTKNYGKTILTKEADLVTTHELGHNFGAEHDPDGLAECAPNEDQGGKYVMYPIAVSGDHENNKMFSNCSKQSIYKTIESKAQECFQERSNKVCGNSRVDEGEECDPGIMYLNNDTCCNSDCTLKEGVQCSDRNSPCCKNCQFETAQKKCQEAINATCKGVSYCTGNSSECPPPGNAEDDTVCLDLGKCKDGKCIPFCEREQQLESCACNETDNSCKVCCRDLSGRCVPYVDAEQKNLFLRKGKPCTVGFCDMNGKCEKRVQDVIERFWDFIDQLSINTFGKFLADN
Sequence of human ADAMTS6 (Q9UKP5 other isoform, or with tags, fused parts or gaps): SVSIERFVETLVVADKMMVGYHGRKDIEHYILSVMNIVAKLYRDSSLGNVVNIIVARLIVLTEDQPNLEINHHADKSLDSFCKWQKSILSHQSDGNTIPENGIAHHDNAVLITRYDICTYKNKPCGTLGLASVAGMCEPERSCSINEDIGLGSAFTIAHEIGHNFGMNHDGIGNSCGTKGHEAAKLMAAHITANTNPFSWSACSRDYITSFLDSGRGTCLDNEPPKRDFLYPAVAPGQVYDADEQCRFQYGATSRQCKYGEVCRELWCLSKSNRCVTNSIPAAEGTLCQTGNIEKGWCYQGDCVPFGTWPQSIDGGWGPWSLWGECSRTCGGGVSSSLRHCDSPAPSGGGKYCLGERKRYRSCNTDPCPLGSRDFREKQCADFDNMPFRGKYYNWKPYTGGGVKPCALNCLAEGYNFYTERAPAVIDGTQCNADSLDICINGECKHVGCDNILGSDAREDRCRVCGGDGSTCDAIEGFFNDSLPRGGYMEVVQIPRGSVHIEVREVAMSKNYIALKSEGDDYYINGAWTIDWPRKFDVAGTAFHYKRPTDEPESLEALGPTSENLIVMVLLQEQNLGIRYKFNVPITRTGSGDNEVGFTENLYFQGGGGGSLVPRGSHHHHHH
Sequence of rnADAMTS-5 (1-564-6H) (Q6TY19 entry or part of it): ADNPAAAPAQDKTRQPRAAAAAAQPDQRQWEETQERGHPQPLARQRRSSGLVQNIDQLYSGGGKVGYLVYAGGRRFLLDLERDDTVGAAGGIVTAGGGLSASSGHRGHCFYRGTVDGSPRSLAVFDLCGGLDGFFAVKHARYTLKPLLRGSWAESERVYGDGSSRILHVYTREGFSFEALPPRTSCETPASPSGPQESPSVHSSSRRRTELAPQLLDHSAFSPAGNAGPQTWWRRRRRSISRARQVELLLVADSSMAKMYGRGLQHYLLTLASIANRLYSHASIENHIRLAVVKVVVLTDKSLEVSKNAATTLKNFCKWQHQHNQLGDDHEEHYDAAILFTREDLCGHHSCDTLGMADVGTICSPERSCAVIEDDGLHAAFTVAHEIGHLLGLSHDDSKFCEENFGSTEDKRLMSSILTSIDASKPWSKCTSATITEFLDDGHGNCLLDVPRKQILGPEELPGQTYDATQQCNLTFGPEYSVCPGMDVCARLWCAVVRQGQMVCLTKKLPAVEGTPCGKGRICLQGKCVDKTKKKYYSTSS

As for `O=C1NC(=O)[C@H](CCC(=O)N2CCC(c3ccccc3)CC2)N1` [Cpd 1, (S)-5-[(3-oxo-3-((4S)-phenylpiperidin-1-yl)propyl]) imidazolidine-2,4-dione], the negative logarithm of the IC50 (pIC50) in assay [1] and in assay [2] was < 7.00 throughout.

As for `O=C1NC(=O)C(CCC(=O)N2CCC(c3ccccc3)CC2)N1` (stereo not shown) [Cpd 2, 5-[3-oxo-3-(4-phenyl-1-piperidyl)propyl] imidazolidine-2,4-dione], the pIC50 in assay [1], in assay [3] (5FAM-LAQAVRSSSRK-5TAMRA) and in assay [2] was < 7.00 each time.

`O=C1NC(=O)C(CCC(=O)N2CCC(c3ccccc3)CC2)(c2ccccc2)N1` (stereo not shown) [Cpd 3, 5-(3-oxo-3-(4-phenylpiperidin-1-yl)propyl)-5-phenyl imidazolidine-2,4-dione]: the pIC50 in assay [1] was 7.00 to 7.30; in assay [4] it was 7.00 to 7.30; in assay [3] (5FAM-LAQAVRSSSRK-5TAMRA), < 7.00; in assay [2], < 7.00.

As to `CC1(CCC(=O)N2CCC(c3ccccc3)CC2)NC(=O)NC1=O` (stereo not shown) [Cpd 4, 5-methyl-5-(3-oxo-3-(4-phenylpiperidin-1-yl)propyl) imidazolidine-2,4-dione], the pIC50 in assay [1], in assay [3] (5FAM-LAQAVRSSSRK-5TAMRA) and in assay [2] was < 7.00 throughout.

Consider `CC(C)C1(CCC(=O)N2CCC(c3ccccc3)CC2)NC(=O)NC1=O` (stereo not shown) [Cpd 5, 5-isopropyl-5-(3-oxo-3-(4-phenylpiperidin-1-yl)propyl) imidazolidine-2,4-dione], for which the pIC50 was 7.00 to 7.30 in assay [1], < 7.00 in assay [3] (5FAM-LAQAVRSSSRK-5TAMRA) and < 7.00 in assay [2].

For the compound `COc1ccccc1C1CCN(C(=O)CCC2(C)NC(=O)NC2=O)CC1` (stereo not shown) [Cpd 6, 5-(3-(4-(2-methoxyphenyl)piperidin-1-yl)-3-oxopropyl)-5-methyl-imidazolidine-2,4-dione], the pIC50 in assay [1] and in assay [2] was < 7.00 each time.

With `O=C1NC(=O)C(CCC(=O)N2CCC(c3ccccc3)CC2)(C2CC2)N1` (stereo not shown) [Cpd 7, 5-cyclopropyl-5-(3-oxo-3-(4-phenylpiperidin-1-yl)propyl) imidazolidine-2,4-dione], the pIC50 was < 7.00 in assay [5]; 7.00 to 7.30 in assay [1]; 7.00 to 7.30 in assay [4]; < 7.00 in assay [3] (5FAM-LAQAVRSSSRK-5TAMRA); < 7.00 in assay [2].

In the case of `Cc1ccc(C2CCN(C(=O)CCC3(C)NC(=O)NC3=O)CC2)cc1` (stereo not shown) [Cpd 8, 5-methyl-5-(3-oxo-3-(4-p-tolylpiperidin-1-yl)propyl) imidazolidine-2,4-dione], the pIC50 in assay [1] and in assay [2] was < 7.00 each time.

Take `CC1(CCC(=O)N2CCC(c3cc(Cl)cc(Cl)c3)CC2)NC(=O)NC1=O` (stereo not shown) [Cpd 9, 5-(3-(4-(3,5-dichlorophenyl)piperidin-1-yl)-3-oxopropyl)-5-methyl-imidazolidine-2,4-dione]: the pIC50 was < 7.00 in assay [5]; 7.00 to 7.30 in assay [1]; < 7.00 in assay [4]; < 7.00 in assay [3] (5FAM-LAQAVRSSSRK-5TAMRA); 7.30 to 7.60 in assay [2].

As to `CC1(CCC(=O)N2CCC(c3ccc(F)cc3)CC2)NC(=O)NC1=O` (stereo not shown) [Cpd 10, 5-(3-(4-(4-fluorophenyl)piperidin-1-yl)-3-oxopropyl)-5-methyl-imidazolidine-2,4-dione], the pIC50 in assay [5], in assay [1], in assay [3] (5FAM-LAQAVRSSSRK-5TAMRA) and in assay [2] was < 7.00 each time.

On to `CC1(CCC(=O)N2CCC(c3cccc(Cl)c3)CC2)NC(=O)NC1=O` (stereo not shown) [Cpd 11, 5-(3-(4-(3-chlorophenyl)piperidin-1-yl)-3-oxopropyl)-5-methyl-imidazolidine-2,4-dione], for which the pIC50 in assay [5] was < 7.00; in assay [1], < 7.00; in assay [3] (5FAM-LAQAVRSSSRK-5TAMRA) it was < 7.00; in assay [2], 7.00 to 7.30.

As to `CC1(CCC(=O)N2CCC(c3ccc(Cl)cc3)CC2)NC(=O)NC1=O` (stereo not shown) [Cpd 12, 5-(3-(4-(4-chlorophenyl)piperidin-1-yl)-3-oxopropyl)-5-methyl-imidazolidine-2,4-dione], the pIC50 in assay [5] was < 7.00; in assay [1], < 7.00; in assay [3] (5FAM-LAQAVRSSSRK-5TAMRA), < 7.00; in assay [2], 7.00 to 7.30.

As to `CC1(CCC(=O)N2CCC(c3cccc(F)c3)CC2)NC(=O)NC1=O` (stereo not shown) [Cpd 13, 5-(3-(4-(3-fluorophenyl)piperidin-1-yl)-3-oxopropyl)-5-methyl-imidazolidine-2,4-dione], the pIC50 in assay [1] and in assay [2] was < 7.00 in each case.

`CC1(CCC(=O)N2CCC(c3ccccc3F)CC2)NC(=O)NC1=O` (stereo not shown) [Cpd 14, 5-(3-(4-(2-fluorophenyl)piperidin-1-yl)-3-oxopropyl)-5-methyl-imidazolidine-2,4-dione]: the pIC50 in assay [1] and in assay [2] was < 7.00 each time.

As for `Cc1cccc(C2CCN(C(=O)CCC3(C)NC(=O)NC3=O)CC2)c1` (stereo not shown) [Cpd 15, 5-methyl-5-(3-oxo-3-(4-m-tolylpiperidin-1-yl)propyl) imidazolidine-2,4-dione], the pIC50 in assay [1] and in assay [2] was < 7.00 throughout.

For `O=C1NC(=O)C(CCC(=O)N2CCC(c3ccccc3)CC2)(c2cccnc2)N1` (stereo not shown) [Cpd 16, 5-(3-oxo-3-(4-phenyl-piperidin-1-yl)propyl)-5-(pyridin-3-yl)imidazolidine-2,4-dione], the pIC50 in assay [5] is < 7.00; in assay [1], 7.00 to 7.30; in assay [4], 7.00 to 7.30; in assay [3] (5FAM-LAQAVRSSSRK-5TAMRA), < 7.00; in assay [2], < 7.00.

Turning to `COc1cc(C2CCN(C(=O)CC[C@H]3NC(=O)NC3=O)CC2)cc(OC)c1Cl` [Cpd 21, (R)-5-(3-(4-(4-chloro-3,5-dimethoxy-phenyl)piperidin-1-yl)-3-oxopropyl) imidazolidine-2,4-dione], the pIC50 in assay [6] was < 7.00; in assay [5], < 7.00; in assay [4], < 7.00; in assay [3] (5FAM-LAQAVRSSSRK-5TAMRA) it was < 7.00; in assay [2], 7.60 to 12.00.

On to `COc1cc(C2CCN(C(=O)CCC3(C)NC(=O)NC3=O)CC2)cc(OC)c1Cl` (stereo not shown) [Cpd 22, 5-(3-(4-(4-chloro-3,5-dimethoxy-phenyl)piperidin-1-yl)-3-oxopropyl)-5-methyl-imidazolidine-2,4-dione], for which the pIC50 in assay [6] was < 7.00; in assay [5] it was < 7.00; in assay [4], < 7.00; in assay [3] (5FAM-[…]-5TAMRA) it was 7.00 to 7.30; in assay [2] it was 7.60 to 12.00.

On to `C[C@@H](C[C@@]1(C)NC(=O)NC1=O)C(=O)N1CCC(c2ccccc2)CC1` [Cpd 23, (R)-5-methyl-5-((S)-2-methyl-3-oxo-3-(4-phenylpiperidin-1-yl)propyl) imidazolidine-2,4-dione], for which the pIC50 in assay [6] is 7.00 to 7.30; in assay [5], < 7.00; in assay [4] it was 7.00 to 7.30; in assay [3] (5FAM-LAQAVRSSSRK-5TAMRA), < 7.00; in assay [2] it was 7.00 to 7.30.
